One may read the pIC50 as −log10 of the IC50, conventionally taken in molar units. As a reminder, the pEC50 is the negative decadic logarithm of the EC50, by convention in mol/L. Usually pKi stands for the negative decadic logarithm of the Ki, by convention in mol/L.

This passage reports IC50, EC50 and Ki results from patent publication US9434725B2, “5-azaindazole compounds and methods of use” (priority 2012, dated 2016).

Assay [1] relates to BaF3 PIM1 cells. Nature of the assay: In vitro cell proliferation potency assay (Cell Titer Glo), BaF3 PIM1 cells. It counts as cell-based, murine. To be noted: Mus musculus, BaF3, BaF3 cells transfected with PIM1, incubated overnight; read-out: Prolif BaF3_PIM 1 (IC50). In general terms: ATP-based viability assays read luminescence as a measure of living cells.
Assay [2] deals with MM1.S (multiple myeloma) cells. Nature of the assay: In vitro cell proliferation potency assay (Cell Titer Glo), MM1.S cells. To be noted: Homo sapiens, read-out: Prolif MM1S ATP (EC50). Type of assay: cell-based. In outline: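 Murine IL-3-dependent BaF3 pro-B cells transfected with PIM1 were seeded at 5 k/well and incubated overnight with compound; MM1.S myeloma cells were seeded at 10 k/well and incubated 72 h at 37°C, 5% CO2. Viability read by CellTiter-Glo luminescence after 30 min, giving IC50/EC50.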

In assay [3] the target is PIM2 (Homo sapiens (Human), UniProt Q9P1W9). Nature of the assay: Pim kinase binding activity, Caliper LC3000 microfluidic peptide phosphorylation assay, PIM2. It counts as biochemical. The note with it: 10 μM ATP, 90 min, room temperature; read-out: PIM2 LC3K (KI). In outline: (§1)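 Read-out is microfluidic electrophoretic separation of phosphorylated from unphosphorylated fluorescent Pim peptide, with Ki calculated from conversion. Reactions ran 90 min at room temperature in HEPES pH 7.2 containing MgCl2, Tween 20 and DTT, ended by EDTA-containing buffer.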
Chain of PIM2 (Q9P1W9 whole entry): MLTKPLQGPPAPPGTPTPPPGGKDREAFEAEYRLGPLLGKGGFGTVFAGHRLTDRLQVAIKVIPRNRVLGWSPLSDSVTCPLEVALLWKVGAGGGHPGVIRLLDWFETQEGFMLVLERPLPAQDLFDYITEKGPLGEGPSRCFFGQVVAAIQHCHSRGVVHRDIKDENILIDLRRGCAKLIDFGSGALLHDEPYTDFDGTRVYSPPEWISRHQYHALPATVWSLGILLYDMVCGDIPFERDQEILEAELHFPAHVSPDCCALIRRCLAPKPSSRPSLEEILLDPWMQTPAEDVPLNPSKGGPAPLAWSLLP

In assay [4] the target is PIM1 (Homo sapiens (Human), UniProt P11309). Nature of the assay: biochemical. It counts as biochemical. The note with it: 10 μM ATP, 90 min, room temperature; read-out: PIM1 LC3K (KI). In outline: as §1
Chain of PIM1 (P11309 whole entry): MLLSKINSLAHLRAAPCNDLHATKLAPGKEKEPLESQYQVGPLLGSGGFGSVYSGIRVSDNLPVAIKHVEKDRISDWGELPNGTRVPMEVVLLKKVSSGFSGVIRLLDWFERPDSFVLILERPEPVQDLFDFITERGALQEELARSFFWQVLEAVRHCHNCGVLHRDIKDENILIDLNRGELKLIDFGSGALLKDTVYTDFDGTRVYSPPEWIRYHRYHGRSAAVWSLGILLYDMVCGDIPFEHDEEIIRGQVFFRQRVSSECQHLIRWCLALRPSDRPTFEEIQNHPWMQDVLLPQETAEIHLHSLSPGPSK
In assay [5] the target is PIM3 (Homo sapiens (Human), UniProt Q86V86). Nature of the assay: Pim kinase binding activity, Caliper LC3000 microfluidic peptide phosphorylation assay, PIM3. It counts as biochemical. The note with it: 10 μM ATP, 90 min, room temperature; read-out: PIM3 LC3K (KI). In outline:
as §1

Setting [6] is: MM1.S, 72 h, MM1.S cells, 72 hours.

pEC50, pIC50, pKi: −log10 of the molar value. Structures can show the parent of a compound that is named as a salt. Where two headings read alike, the source gives them in different places.

As to `OCCOc1cncc(-c2cc3c(cn2)cnn3-c2cccc(N3CCNCC3)n2)n1` [Compound 278, 2-((6-(1-(6-(piperazin-1-yl)pyridin-2-yl)-1H-pyrazolo[4,3-c]pyridin-6-yl)pyrazin-2-yl)oxy)ethanol dihydrochloride], the pIC50 in assay [1] was 6.58. In assay [2] (MM1.S, 72 h), the negative logarithm of the EC50 (pEC50) was under 5.21. Also, the pKi in assay [3] was 8.58; in assay [4] it was 9.79; in assay [5], 9.98.

On to `FC(F)c1cncc(-c2cc3c(cn2)cnn3-c2cccc(N3CCNCC3)n2)n1` [Compound 279, 6-(6-(difluoromethyl)pyrazin-2-yl)-1-(6-(piperazin-1-yl)pyridin-2-yl)-1H-pyrazolo[4,3-c]pyridine trifluoroacetate], for which the pIC50 in assay [1] was 6.21. For the same compound, the pEC50 in assay [2] (MM1.S cells, 72 hours) is 5.64. Moreover, the pKi in assay [3] is 8.40; in assay [4] it was 9.64; in assay [5] it was 9.88.

Turning to `OC1CN(c2cncc(-c3cc4c(cn3)cnn4-c3cccc(N4CCNCC4)n3)n2)C1` [Compound 281, 1-(6-(1-(6-(piperazin-1-yl)pyridin-2-yl)-1H-pyrazolo[4,3-c]pyridin-6-yl)pyrazin-2-yl)azetidin-3-ol], in assay [1], the pIC50 is 6.16. The pEC50 in assay [2] (setting [6]) is 4.80. For the same compound, the pKi in assay [3] is 8.47; in assay [4], 10.32; in assay [5] it was 10.19.

Consider `c1cc(N2CCNCC2)nc(-n2ncc3cnc(-c4cncc(N5CCC5)n4)cc32)c1` [Compound 284, 6-(6-(azetidin-1-yl)pyrazin-2-yl)-1-(6-(piperazin-1-yl)pyridin-2-yl)-1H-pyrazolo[4,3-c]pyridine], for which the pIC50 in assay [1] is 6.41. Further, the pEC50 in assay [2] (setting [6]) is 5.34. The pKi is 8.74 in assay [3], 10.70 in assay [4] and 10.60 in assay [5].

In the case of `Cc1cncc(-c2cc3c(cn2)cnn3-c2cccc(N3CCCC4(CNC4)C3)n2)n1` [Compound 293, 1-(6-(2,6-diazaspiro[3.5]nonan-6-yl)pyridin-2-yl)-6-(6-methylpyrazin-2-yl)-1H-pyrazolo[4,3-c]pyndine], the pIC50 in assay [1] was 6.01. Besides, the pEC50 in assay [2] (MM1.S cells, 72 hours) was 5.14. Moreover, the pKi in assay [3] was 8.83; in assay [4], 10.21; in assay [5], 9.95.

Turning to `COC1(c2cccc(-n3ncc4cnc(-c5cncc(C)n5)cc43)n2)CCCNC1` (stereo not shown) [Compound 295, 1-(6-(3-methoxypiperidin-3-yl)pyridin-2-yl)-6-(6-methylpyrazin-2-yl)-1H-pyrazolo[4,3-c]pyridine], the pIC50 in assay [1] is 6.37. The pEC50 in assay [2] (MM1.S cells, 72 hours) was 4.96. For the same compound, the pKi in assay [3] is 8.84; in assay [4], 9.59; in assay [5] it was 9.84.

As for `OCCCc1cncc(-c2cc3c(cn2)cnn3-c2cccc(N3CCNCC3)n2)n1` [Compound 301, 3-(6-(1-(6-(piperazin-1-yl)pyridin-2-yl)-1H-pyrazolo[4,3-c]pyridin-6-yl)pyrazin-2-yl)propan-1-ol], the pIC50 in assay [1] was 6.11. For the same compound, the pEC50 in assay [2] (MM1.S cells, 72 hours) is 5.40. The pKi in assay [3] was 9.35; in assay [4], 10.47; in assay [5], 10.74.

On to `N[C@H]1CCC[C@@H]1Oc1cncc(-c2cc3c(cn2)cnn3-c2ccccn2)n1` [Compound 304, (1S,2S)-2-(6-(1-(pyridin-2-yl)-1H-pyrazolo[4,3-c]pyridin-6-yl)pyrazin-2-yloxy)cyclopentanamine], for which the pIC50 in assay [1] was 6.59. The pEC50 in assay [2] (MM1.S cells, 72 hours) is 5.92. The pKi in assay [3] is 9.13; in assay [4], 10.03; in assay [5], 10.15.

Take `N[C@H]1CCC[C@@H]1Nc1cncc(-c2cc3c(cn2)cnn3-c2ccccn2)n1` [Compound 307, (1S,2S)-N1-(6-(1-(pyridin-2-yl)-1H-pyrazolo[4,3-c]pyridin-6-yl)pyrazin-2-yl)cyclopentane-1,2-diamine]: the pIC50 in assay [1] is 6.19. The pEC50 in assay [2] (setting [6]) is 5.54. The pKi in assay [3] was 8.53; in assay [4] it was 9.92; in assay [5] it was 10.01.

For `C#Cc1cncc(-c2cc3c(cn2)cnn3-c2cccc(N3CCNCC3)n2)n1` [Compound 315, 6-(6-ethynylpyrazin-2-yl)-1-(6-(piperazin-1-yl)pyridin-2-yl)-1H-pyrazolo[4,3-c]pyridine], in assay [1], the pIC50 is 5.70. Also, in assay [2] (setting [6]), the pEC50 is 6.16. For the same compound, the pKi in assay [3] is 8.76; in assay [4], 9.87; in assay [5], 10.24.

`Cn1ncc(-c2cc3c(cn2)cnn3-c2ccccc2F)c1N1CCC(N)CC1` [Compound 316, 1-(4-(1-(2-fluorophenyl)-1H-pyrazolo[4,3-c]pyridin-6-yl)-1-methyl-1H-pyrazol-5-yl)piperidin-4-amine]: the pIC50 in assay [1] was under 4.60. In addition, the pEC50 in assay [2] (setting [6]) was under 4.60. Further, the figures for the pKi in assay [3], in assay [4] and in assay [5] were 6.47, 7.81 and 7.32, respectively.
